According to ChEMBL document CHEMBL1138055, “Tetraoxane antimalarials and their reaction with Fe(II)” (J Med Chem, 2006):
“And” between values parts separate entries of the source, which are not always exact repeats. Equal entries are not always repeated.

Assays:
Vero [1] = test: Selectivity index, IC50 for VERO cells/IC50 for Plasmodium falciparum D6; format: functional
Vero [2] = test: Selectivity index, IC50 for VERO cells/IC50 for Plasmodium falciparum W2; format: functional
Vero [3] = test: Selectivity index, IC50 for VERO cells/LC50 for UO31 cells; format: functional
Mus musculus [4] = test: Effect on survival of CD1 mice (Mus musculus) infected with Plasmodium berghei KBG173 at 600 mg/kg/day, perorally; format: functional, organism-based; design: route oral; conditions: route oral
Mus musculus [5] = test: Effect on survival of CD1 mice (Mus musculus) infected with Plasmodium berghei KBG173 at 200 mg/kg/day, perorally; format: functional; conditions: route oral
Mus musculus [6] = test: Effect on survival of CD1 mice (Mus musculus) infected with Plasmodium berghei KBG173 at 50 mg/kg/day, perorally; format: functional; conditions: route oral
IGROV-1 = test: Antiproliferative activity against human IGROV1 cell line after 48 hrs; format: functional; conditions: Homo sapiens, IGROV-1, 48 h
UO-31 = test: Antiproliferative activity against human UO31 cell line after 48 hrs; format: functional; conditions: Homo sapiens, UO-31, 48 h; for CC50: read-out: LC50 (the source's name)
RPMI-8226 = test: Antiproliferative activity against human RPMI8226 cell line after 48 hrs; format: functional
NCI-H23 = test: Antiproliferative activity against human NCI-H23 cell line after 48 hrs; format: functional; conditions: NCI-H23, 48 h
NCI-H460 = test: Antiproliferative activity against human NCI-H460 cell line after 48 hrs; format: functional; conditions: NCI-H460, 48 h
SF-268 = test: Antiproliferative activity against human SF268 cell line after 48 hrs; format: functional; conditions: SF-268, 48 h
CAKI-1 = test: Antiproliferative activity against human CAKI1 cell line after 48 hrs; format: functional; conditions: CAKI-1, 48 h
TK-10 = test: Antiproliferative activity against human TK10 cell line after 48 hrs; format: functional; conditions: TK-10, 48 h
Vero [7] = test: Cytotoxicity against VERO cells; format: functional, cell-based; conditions: Chlorocebus sabaeus
HOP-62 = test: Antiproliferative activity against human HOP62 cell line after 48 hrs; format: functional; conditions: Homo sapiens, HOP-62, 48 h
COLO 205 = test: Antiproliferative activity against human COLO 205 cell line after 48 hrs; format: functional; conditions: Homo sapiens, COLO 205, 48 h
ACHN = test: Antiproliferative activity against human ACHN cell line after 48 hrs; format: functional; conditions: Homo sapiens, ACHN, 48 h
Plasmodium falciparum [8] = test: microbe, parasite or virus in culture; conditions: D6
Description: (§1) Antimalarial activity against Plasmodium falciparum D6

Plasmodium falciparum [9] = test: microbe, parasite or virus in culture; conditions: W2
Description: (§2) Antimalarial activity against Plasmodium falciparum W2

PBMC [10] = test: Selectivity index, IC50 for PBMC/IC50 for Plasmodium falciparum D6; format: functional
PBMC [11] = test: Selectivity index, IC50 for PBMC/IC50 for Plasmodium falciparum W2; format: functional
PBMC [12] = test: Selectivity index, IC50 for PBMC/IC50 for Plasmodium falciparum TM91C235; format: functional
PBMC [13] = test: Selectivity index, IC50 for PBMC/LC50 for UO31 cells; format: functional
786-0 = test: Antiproliferative activity against human 786-0 cell line after 48 hrs; format: functional; conditions: 786-0, 48 h
LOX IMVI = test: Antiproliferative activity against human LOX IMVI cell line after 48 hrs; format: functional
Mus musculus [14] = organism: Mus musculus; test: Intrinsic clearance in mouse liver microsomes; format: ADME, Microsome
Liver microsomes = test: Intrinsic clearance in human liver microsomes; format: ADME, Microsome
[15] = Half life in mouse liver microsomes; format: ADME, Microsome
[16] = Half life in human liver microsomes; format: ADME, Microsome
PBMC [17] = test: Cytotoxicity against human peripheral blood mononuclear cells; format: functional, cell-based
EKVX = test: Antiproliferative activity against human EKVX cell line after 48 hrs; format: functional; conditions: Homo sapiens, EKVX, 48 h
PBMC [18] = test: Cytotoxicity against PHA-stimulated human PBMC; format: functional, cell-based
Plasmodium falciparum [19] = tested on: Plasmodium falciparum
Description: as §1

Plasmodium falciparum [20] = tested on: Plasmodium falciparum; remark: listed apart in the source
Description: as §2

Plasmodium falciparum [21] = tested on: Plasmodium falciparum; remark: listed apart in the source
Description: Antimalarial activity against Plasmodium falciparum TM91C235

[22] = read-out: LC50 (the source's name)

Question: With `CCCC(=O)CC[C@@H](C)[C@H]1CC[C@H]2[C@@H]3[C@H](OC(C)=O)C[C@@H]4CC5(CC[C@]4(C)[C@H]3C[C@H](OC(C)=O)[C@]12C)OOC1(CCCCC1)OO5` as the compound, how does the Selectivity index (Vero [1]) read?
Answer: 823

Question: And the Selectivity index (Vero [2])?
Answer: 1763

Question: And the Selectivity index (Vero [3])?
Answer: 726

Question: What about the Activity (Mus musculus [4]) of the same compound?
Answer: 28 days

Question: And the Activity (Mus musculus [5])?
Answer: 24.4 days

Question: What about the Activity (Mus musculus [6]) of the same compound?
Answer: 14.2 days

Question: What about the GI50 (IGROV-1) of the same compound?
Answer: 190 nM

Question: What about the TGI (IGROV-1) of the same compound?
Answer: 460 nM

Question: What about the CC50 (IGROV-1; [22]) of the same compound?
Answer: 1360 nM

Question: What about the GI50 (UO-31) of the same compound?
Answer: < 10 nM

Question: And the TGI (UO-31)?
Answer: < 10 nM

Question: And the CC50 (UO-31)?
Answer: 17 nM

Question: And the TGI (RPMI-8226; Homo sapiens, RPMI-8226, 48 h)?
Answer: 3470 nM

Question: What about the CC50 (RPMI-8226; [22]) of the same compound?
Answer: 1280 nM and 9370 nM

Question: What about the GI50 (NCI-H23) of the same compound?
Answer: 610 nM

Question: What about the TGI (NCI-H23) of the same compound?
Answer: 1990 nM

Question: What about the CC50 (NCI-H23; [22]) of the same compound?
Answer: 4640 nM

Question: What about the GI50 (NCI-H460) of the same compound?
Answer: 180 nM

Question: What about the TGI (NCI-H460) of the same compound?
Answer: 590 nM

Question: And the CC50 (NCI-H460; [22])?
Answer: 2600 nM

Question: And the GI50 (SF-268)?
Answer: 1570 nM

Question: What about the TGI (SF-268) of the same compound?
Answer: 3900 nM

Question: And the CC50 (SF-268; [22])?
Answer: 9680 nM

Question: What about the GI50 (CAKI-1) of the same compound?
Answer: 180 nM

Question: What about the TGI (CAKI-1) of the same compound?
Answer: 400 nM

Question: And the CC50 (CAKI-1; [22])?
Answer: 910 nM

Question: And the GI50 (TK-10)?
Answer: 1670 nM

Question: What about the TGI (TK-10) of the same compound?
Answer: 3620 nM

Question: What about the CC50 (TK-10; [22]) of the same compound?
Answer: 7840 nM

Question: And the IC50 (Vero [7])?
Answer: 12300 nM

Question: And the GI50 (HOP-62)?
Answer: 440 nM

Question: What about the TGI (HOP-62) of the same compound?
Answer: 1720 nM

Question: What about the CC50 (HOP-62; [22]) of the same compound?
Answer: 5400 nM

Question: And the GI50 (COLO 205)?
Answer: 1770 nM

Question: And the TGI (COLO 205)?
Answer: 3720 nM

Question: And the CC50 (COLO 205; [22])?
Answer: 7820 nM

Question: And the GI50 (ACHN)?
Answer: 1340 nM

Question: And the LC50 (ACHN)?
Answer: 5120 nM

Question: And the TGI (ACHN)?
Answer: 2620 nM

Question: And the IC50 (Plasmodium falciparum [8])?
Answer: 14.8 nM

Question: And the IC50 (Plasmodium falciparum [9])?
Answer: 6.8 nM

Question: Which Selectivity index (PBMC [10]) does the source give for `CC(=O)O[C@H]1C[C@H]2[C@@H]([C@H](OC(C)=O)C[C@@H]3CC4(CC[C@@]32C)OOC2(CCC(C(=O)Nc3ccccc3)CC2)OO4)[C@@H]2CC[C@H]([C@H](C)CCC(=O)Nc3ccccc3)[C@@]12C` (stereo in doubt; 13) here?
Answer: >33000

Question: What about the Selectivity index (PBMC [11]) of the same compound?
Answer: >18000

Question: What about the Selectivity index (PBMC [12]) of the same compound?
Answer: >25000

Question: And the Selectivity index (PBMC [13])?
Answer: >392

Question: What about the GI50 (786-0) of the same compound?
Answer: 450 nM

Question: And the LC50 (786-0)?
Answer: 67900 nM

Question: And the TGI (786-0)?
Answer: 14200 nM

Question: And the GI50 (LOX IMVI)?
Answer: 370 nM

Question: And the TGI (LOX IMVI)?
Answer: 1690 nM

Question: What about the CC50 (LOX IMVI; [22]) of the same compound?
Answer: 7150 nM

Question: What about the GI50 (UO-31) of the same compound?
Answer: 50 nM

Question: What about the TGI (UO-31) of the same compound?
Answer: 190 nM

Question: What about the CC50 (UO-31) of the same compound?
Answer: 510 nM

Question: What about the CL (Mus musculus [14]) of the same compound?
Answer: < 0.6 mL/min/g

Question: What about the CL (Liver microsomes) of the same compound?
Answer: < 0.6 mL/min/g

Question: What about the half-life [15] of the same compound?
Answer: > 2 h

Question: What about the half-life [16] of the same compound?
Answer: > 2 h

Question: And the IC50 (PBMC [17])?
Answer: > 200000 nM

Question: What about the GI50 (EKVX) of the same compound?
Answer: 900 nM

Question: And the LC50 (EKVX)?
Answer: > 100000 nM

Question: What about the TGI (EKVX) of the same compound?
Answer: > 100000 nM

Question: What about the IC50 (PBMC [18]) of the same compound?
Answer: > 200000 nM

Question: And the IC50 (Plasmodium falciparum [19])?
Answer: 6.2 nM

Question: What about the IC90 (Plasmodium falciparum [19]) of the same compound?
Answer: 11.3 nM

Question: What about the IC50 (Plasmodium falciparum [20]) of the same compound?
Answer: 11.4 nM

Question: And the IC90 (Plasmodium falciparum [20])?
Answer: 20.8 nM

Question: What about the IC50 (Plasmodium falciparum [21]) of the same compound?
Answer: 8.1 nM

Question: And the IC90 (Plasmodium falciparum [21])?
Answer: 19.2 nM
